Measured values reported in US8785460B2, “Tricyclic compounds and use thereof” (Takeda Pharmaceutical Company Limited, priority 2008, dated 2014).

Molecular target: T1, human CRF1 receptor (Homo sapiens, UniProt P34998)
T1 construct: expressed in transfected cells; host or cells: CHO cells (membrane fraction)
T1 sequence (P34998 24-415): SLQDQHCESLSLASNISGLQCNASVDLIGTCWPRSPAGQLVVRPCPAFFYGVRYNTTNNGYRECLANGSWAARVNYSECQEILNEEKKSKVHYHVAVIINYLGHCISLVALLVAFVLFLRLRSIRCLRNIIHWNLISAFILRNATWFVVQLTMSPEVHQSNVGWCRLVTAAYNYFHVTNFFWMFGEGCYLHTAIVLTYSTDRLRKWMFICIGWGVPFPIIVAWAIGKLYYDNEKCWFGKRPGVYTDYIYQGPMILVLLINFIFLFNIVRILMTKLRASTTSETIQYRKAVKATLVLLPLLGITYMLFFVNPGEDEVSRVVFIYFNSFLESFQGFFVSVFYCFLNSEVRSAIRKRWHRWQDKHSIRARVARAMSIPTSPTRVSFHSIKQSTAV
Assay: Measurement of CRF Binding Inhibitory Rate (receptor binding experiment with 125I-CRF)
Conditions: human CRF1 receptor expressing CHO cellular membrane fraction, 50 pM 125I-CRF, room temperature 1.5 hr, 0.05 nM to 10 μM of compound; read-out: IC50 values (CRF binding inhibition)
Method: Measurement of CRF Binding Inhibitory Rate
A receptor binding experiment was carried out using a human CRF1 receptor expressing CHO cellular membrane fraction and ovine CRF, [^125I]-tyr^0(^125I-CRF). 1000 nM of a test compound was incubated with 1 μg of human CREF receptor expressing CHO cellular membrane fraction and 50 pM of ^125I-CRF in a binding assay buffer (50 mM Tris-HCl, 5 mM EDTA, 10 mM MgCl2, 0.05% CHAPS, 0.1% BSA, 0.5 mM PMSF, 0.1 μg/mL pepstatin, 20 μg/mL leupeptin, pH 7.5). In addition, for measuring nonspecific binding (NSB), 0.1 μM unlabelled human Urocortin was incubated with 5 μg of human CRE receptor expressing CHO cellular membrane fraction and 50 pM of ^125I-CRF in a binding assay buffer. After a binding reaction was carried out at room temperature for 1.5 hr, the membrane was entrapped on a glass filter (UniFilter plate GF-C/Perkin Elmer) by suction filtration using a cell harvester (Perkin Elmer), and washed with ice-cooled 50 mM Tris-HCl (pH 7.5). After drying the glass filter, a liquid scintillation cocktail (Microscinti 0, Perkin Elmer) was added, and the radioactivity of ^125I-CRF remaining on a glass filter was measured using Topcount (Perkin Elmer).
(TB−SB)/(TB−NSB)×100 (SB: radioactivity when a compound is added, TB: maximum binding radioactivity, NSB: nonspecific binding radioactivity) were calculated to obtain binding inhibitory rates under the range of the presence from 0.05 nM to 10 μM of each compound. The IC50 values were calculated by using GraphPad Prism software.

SMILES | IC50 [nM]
CCCC(O)c1ccc(Cl)c2nc3n(c12)CCCN3c1c(C)cc(Cl)cc1Cl (centres unmarked) [Example 140, 1-[9-Chloro-1-(2,4-dichloro-6-methylphenyl)-1,2,3,4-tetrahydropyrimido[1,2-a]benzimidazol-6-yl]butan-1-ol] | < 1000
CC(C)(C#N)c1ccc(Cl)c2nc3n(c12)CCCN3c1ccc(Cl)cc1Cl [Example 144, 2-[9-Chloro-1-(2,4-dichlorophenyl)-1,2,3,4-tetrahydropyrimido[1,2-a]benzimidazol-6-yl]-2-methylpropanenitrile] | < 1000
CCC(OC(C)=O)c1ccc(Cl)c2nc3n(c12)CCCN3c1cnc(OC)cc1C (centres unmarked) [Example 161, 1-[9-Chloro-1-(6-methoxy-4-methylpyridin-3-yl)-1,2,3,4-tetrahydropyrimido[1,2-a]benzimidazol-6-yl]propyl acetate] | < 1000
COC(=O)c1ccc(Cl)c2nc3n(c12)CCCN3c1ncc(C)nc1C [Example 175, Methyl 9-chloro-1-(3,5-dimethylpyrazin-2-yl)-1,2,3,4-tetrahydropyrimido[1,2-a]benzimidazole-6-carboxylate] | < 1000
CC/C(=N\OC(F)F)c1ccc(Cl)c2nc3n(c12)CCCN3c1c(Cl)cc(Cl)cc1Cl [Example 194, (1E)-1-[9-Chloro-1-(2,4,6-trichlorophenyl)-1,2,3,4-tetrahydropyrimido[1,2-a]benzimidazol-6-yl]propan-1-one O-(difluoromethyl)oxime] | < 1000
Clc1ccc(N2CCCn3c2nc2c(Cl)ccc(N4CCCC4)c23)c(Cl)c1 [Example 196, 9-Chloro-1-(2,4-dichlorophenyl)-6-pyrrolidin-1-yl-1,2,3,4-tetrahydropyrimido[1,2-a]benzimidazole] | < 1000
CCC(CC)c1ccc(Cl)c2nc3n(c12)CCN3c1ncc(C(F)(F)F)cc1Cl [Example 225, 8-Chloro-1-[3-chloro-5-(trifluoromethyl)pyridin-2-yl]-5-(1-ethylpropyl)-2,3-dihydro-1H-imidazo[1,2-a]benzimidazole] | < 1000
CC(C)C(O)c1ccc(Cl)c2nc3n(c12)CCCN3c1ccc(Cl)cc1Cl (centres unmarked) [Example 234, 1-[9-Chloro-1-(2,4-dichlorophenyl)-1,2,3,4-tetrahydropyrimido[1,2-a]benzimidazol-6-yl]-2-methylpropan-1-ol] | < 1000
CCC(OC(C)C)c1ccc(Cl)c2nc3n(c12)CCCN3c1ccc(Cl)cc1Cl (centres unmarked) [Example 237, 9-Chloro-1-(2,4-dichlorophenyl)-6-[1-(1-methylethoxy)propyl]-1,2,3,4-tetrahydropyrimido[1,2-a]benzimidazole] | < 1000
CCC(OCCO)c1ccc(Cl)c2nc3n(c12)CCCN3c1ccc(Cl)cc1Cl (centres unmarked) [Example 242, 2-{1-[9-Chloro-1-(2,4-dichlorophenyl)-1,2,3,4-tetrahydropyrimido[1,2-a]benzimidazol-6-yl]propoxy}ethanol] | < 1000
CCC(OC(C)=O)c1ccc(Cl)c2nc3n(c12)CCCN3c1ccccc1Cl (centres unmarked) [Example 253, 1-[9-Chloro-1-(2-chlorophenyl)-1,2,3,4-tetrahydropyrimido[1,2-a]benzimidazol-6-yl]propyl acetate] | < 1000
CCC(OC(C)=O)c1ccc(Cl)c2nc3n(c12)CCCN3c1ccc(S(C)(=O)=O)cc1Cl (centres unmarked) [Example 254, 1-{9-Chloro-1-[2-chloro-4-(methylsulfonyl)phenyl]-1,2,3,4-tetrahydropyrimido[1,2-a]benzimidazol-6-yl}propyl acetate] | < 1000
CCC(OC(C)=O)c1ccc(Cl)c2nc3n(c12)CCCN3c1ccc(C(N)=O)cc1Cl (centres unmarked) [Example 255, 1-[1-(4-Carbamoyl-2-chlorophenyl)-9-chloro-1,2,3,4-tetrahydropyrimido[1,2-a]benzimidazol-6-yl]propyl acetate] | < 1000
CCC(OC1CC1)c1ccc(Cl)c2nc3n(c12)CCCN3c1ccc(OC)nc1C (centres unmarked) [Example 271, 9-Chloro-6-[1-(cyclopropyloxy)propyl]-1-(6-methoxy-2-methylpyridin-3-yl)-1,2,3,4-tetrahydropyrimido[1,2-a]benzimidazole] | < 1000
